Data from patent US20220372498A1, “STABILIZER FOR ADENO-ASSOCIATED VIRUSES AND METHOD FOR STABILIZING ADENO-ASSOCIATED VIRUSES BY USING SAME” (priority 2020, published 2022).

Legend:
[1] = test system: adeno-associated virus serotype 9 (AAV 9); experiment: Crystal formation after mixing FBS with surfactant-containing AAV and tannic acid (microscope); type: physicochemical; details: surfactant 0.05% (w/w), 0.5 mM tannic acid, then 50 uL of 10% FBS
Experimental: Furthermore, the present inventors have attempted to verify whether the formation of a potential crystal structure that may block blood vessels when mixed with plasma may be suppressed through the treatment of a surfactant additionally. To this end, 50 uL of 0.5 mM tannic acid solution was mixed with 50 uL of 1×108 genome/ul AAV solution (PBS, pH 7.4) containing each of CTAB, Tween 80, and CHAPS in a concentration of 0.05% (w/w), and then about 5 minutes after, 50 uL of 10% FBS solution was mixed and observed whether crystals of 10 μm or larger were formed under a microscope.

[2] = test system: adeno-associated virus serotype 9 (AAV 9); experiment: Crystal formation and average particle size after mixing surfactant-treated AAV solution with tannic acid solution (DLS, microscope); type: physicochemical; details: surfactant 0.05% (w/w) in AAV solution (PBS, pH 7.4) + 0.5 mM tannic acid, after about 10 minutes
Experimental: The present inventors tried to check the change in AAV stability by treating a surfactant to solve the problem of AAV aggregation when preparing a gene delivery system using AAV. To this end, the effect was verified for various types of surfactants known in the art. More specifically, after mixing 50 uL of 0.5 mM tannic acid solution with 1×108 genome/ul AAV solution in which each of Tween 80, Triton X, CHAPS, cetrimonium bromide (CTAB), and sodium deoxycholate was present in a concentration of 0.05% (w/w) (PBS, pH 7.4), and then after about 10 minutes, the average particle size was measured through dynamic light scattering (DLS), and the formation of crystals that could cause blood vessel clogging was observed under a microscope. At this time, as a condition not treated with a surfactant, 50 uL of a 1×108 genome/ul AAV solution (PBS, pH 7.4) was mixed with 50 uL of 0.5 mM tannic acid solution, and average particle size measurement and microscopic observation were performed in the same manner as above.

[3] = test system: adeno-associated virus serotype 9 (AAV 9); experiment: AAV stability according to surfactant concentration (UV-Vis absorbance 600 nm scattering, microscope); type: physicochemical; details: 0.5 mM tannic acid
Experimental: 50 uL of 0.5 mM tannic acid solution was mixed with 1×108 genome/ul AAV solution in which Tween 80, a nonionic surfactant, is present in a concentration of 0.2%, 0.05%, 0.0125%, and 0.003% (w/w) (PBS, pH 7.4), respectively, and about 5 minutes after, UV-Vis absorbance in the 600 nm wavelength band was measured for scattering, and crystal formation was observed under a microscope.
In addition, under conditions in which Triton X, another nonionic surfactant, is present in a concentration of 0.05%, 0.0125, 0.003%, and 0.0008% (w/w), respectively, AAV and tannic acid solutions were mixed in the same method as above, and the same experiment was performed, and the result was observed.
(§1) 50 uL of 0.5 mM tannic acid solution was mixed with 1×108 genome/ul AAV solution in which the zwitterionic surfactant CHAPS is present in a concentration of 0.4%, 0.1%, 0.025%, 0.006% (w/w) (PBS, pH 7.4), respectively, and after about 5 minutes, UV-Vis absorbance in the 600 nm wavelength band was measured for scattering, and crystal formation was observed under a microscope.
as §1, with “cationic” for “zwitterionic”, “CTAB” for “CHAPS”
as §1, with “anionic” for “zwitterionic”, “sodium deoxycholate” for “CHAPS”, “0.2%, 0.05%, 0.0125%, […]” for “0.4%, 0.1%, 0.025%, 0.006%”

[4] = Viability of mice after tail vein injection of AAV / tannic acid / Tween 80 mixtures; details: in vivo
Excerpt: On the other hand, the presence or absence of the formation of such crystalline particles is one of the major factors affecting the survival of experimental animals in animal experiments. Crystalline particles of more than 10 μm can block capillaries in the body, and clogged blood vessels can cause ischemic disease, myocardial infarction, cerebral infarction, rupture of blood vessels, etc., and in severe cases, leading to death. Therefore, the present inventors tried to experimentally confirm how the crystallinity was confirmed in the results of FIG. 1A affects the survival of mice. To this end, 50 uL of 0.5 mM or 0.25 mM tannic acid solution was mixed with 50 uL of 2×109 genome/ul AAV solution containing Tween 80 in a concentration of 0.01% (w/w) (PBS, pH 7.4), and then viability was confirmed by injecting 100 uL of mixed solution into the tail vein of the mouse within about 30 minutes (0.01% (w/w) Tween 80+0.5 mM TA+AAV/0.01% (w/w) Tween 80+0.25 mM TA+AAV). In addition, as a condition with the absence of surfactant, 50 uL of 2×109 genome/ul AAV solution without Tween 80 was mixed with tannic acid under the same conditions and injected into the tail vein of mice (0.5 mM TA+AAV/0.25 mM TA+AAV). […]

[5] = test system: adeno-associated virus serotype 9 (AAV 9); experiment: In vitro stability of particle size over time (DLS; UV-Vis 600 nm scattering); type: physicochemical; details: surfactant 0.05% (w/w); 0 min, 30 min, 1 day; compared among Tween 80, CHAPS, sodium deoxycholate
Experimental: The size and shape of AAV particles must be maintained constantly from mixing to injection. Therefore, it was analyzed whether the particle size was maintained until after 30 minutes, which is a time taken from mixing to injection, and a sufficient time, one day. To this end, 50 uL of 0.5 mM tannic acid solution was mixed with 1×108 genome/ul AAV solution in which Tween 80 is present in a concentration of 0.01% (w/w) (PBS, pH 7.4), and then, after about 5 minutes, the average particle sizes were measured at 0 min, […], and 1 day, respectively, through a dynamic light scattering method, and the increase in particle sizes was compared with the initial value.
In addition, 50 uL of 0.5 mM tannic acid solution was mixed with 1×108 genome/ul AAV solution in which various types of surfactants, i.e., Tween 80, CHAPS, and sodium deoxycholate are present in a concentration of 0.05% (w/w) each (PBS, pH 7.4), and then, after about 5 minutes, UV-Vis absorbance of each 600 nm wavelength band was measured at 0 min (min), 30 min, and 1 day (day) to measure the scattering degree. The change in particle size over time was analyzed through an increase in scattering compared to the initial value.

[6] = test system: adeno-associated virus serotype 9 (AAV 9); experiment: AAV stability with albumin alone (DLS, microscope); type: physicochemical; details: 0.5 mM tannic acid, about 10 minutes
Experimental: 50 uL of 0.5 mM tannic acid solution was mixed with 1×108 genome/ul AAV solution in which the albumin is present at various concentrations of 10%, 1%, 0.1%, 0.01% (w/w) (PBS, pH 7.4), respectively, and after about 10 minutes, the average particle size was measured through dynamic light scattering, and particle formation was observed under a microscope.

[7] = surfactant 0.006% (w/w), PBS pH 7.4, about 5 minutes
[8] = surfactant 0.025% (w/w), PBS pH 7.4, about 5 minutes
[9] = surfactant 0.4% (w/w), PBS pH 7.4, about 5 minutes
[10] = surfactant 0.003% (w/w), PBS pH 7.4, about 5 minutes
[11] = surfactant 0.0125% (w/w), PBS pH 7.4, about 5 minutes

## C[C@H](CCC(=O)NCCC[N+](C)(C)CCCS(=O)(=O)[O-])[C@H]1CC[C@H]2[C@@H]3[C@H](O)C[C@@H]4C[C@H](O)CC[C@]4(C)[C@H]3C[C@H](O)[C@]12C [CHAPS, 3-[(3-cholamidopropyl)dimethylammonio]-1-propanesulfonate]
[1]
  formation of crystals of 10 μm or larger after mixing FBS: crystals are not formed
[2]
  formation of crystalline particles in which AAV was aggregated (microscope): not observed
[3]; [7]
  particle / crystal formation: crystal structure was formed
[3]; [8]
  particle / crystal formation: nano-sized particles were formed
[3]; surfactant 0.1% (w/w), PBS pH 7.4, about 5 minutes
  particle / crystal formation: crystal structure was formed
[3]; [9]
  particle / crystal formation: crystal structure was formed

## CCCCCCCCCCCCCCCC[N+](C)(C)C.[Br-] [CTAB, cetrimonium bromide]
[1]
  formation of crystals of 10 μm or larger after mixing FBS: crystals are not formed
[2]
  formation of crystalline particles in which AAV was aggregated (microscope): not observed
[3]; [7]
  particle / crystal formation: crystal structure was formed
[3]; [8]
  particle / crystal formation: nano-sized particles
[3]; [9]
  particle / crystal formation: crystal structure was formed

## O=C(OC[C@H]1O[C@@H](OC(=O)c2cc(O)c(O)c(OC(=O)c3cc(O)c(O)c(O)c3)c2)[C@H](OC(=O)c2cc(O)c(O)c(OC(=O)c3cc(O)c(O)c(O)c3)c2)[C@@H](OC(=O)c2cc(O)c(O)c(OC(=O)c3cc(O)c(O)c(O)c3)c2)[C@@H]1OC(=O)c1cc(O)c(O)c(OC(=O)c2cc(O)c(O)c(O)c2)c1)c1cc(O)c(O)c(OC(=O)c2cc(O)c(O)c(O)c2)c1 [TA, tannic acid]
[4]
  Result (viability of mouse): Survival

## Triton X
[2]
  formation of crystalline particles in which AAV was aggregated (microscope): not observed
[3]; surfactant 0.0008% (w/w), PBS pH 7.4, about 5 minutes
  particle / crystal formation: nano-sized particles were formed
[3]; [10]
  particle / crystal formation: nano-sized particles were formed
[3]; [11]
  particle / crystal formation: crystal structure was formed
[3]; surfactant 0.05% (w/w), PBS pH 7.4, about 5 minutes
  particle / crystal formation: crystal structure was formed

## Tween 80
[5]
  change in particle size over time (increase in scattering, UV-Vis 600 nm): most stably maintained
[1]
  formation of crystals of 10 μm or larger after mixing FBS: crystals are not formed
[2]
  formation of crystalline particles in which AAV was aggregated (microscope): not observed
[3]; [10]
  particle / crystal formation: crystal structure was formed
[3]; [11]
  particle / crystal formation: nano-sized particles
[3]; surfactant 0.2% (w/w), PBS pH 7.4, about 5 minutes
  particle / crystal formation: crystal structure was formed

## albumin
[6]; albumin 0.01% (w/w)
  particle / crystal formation: crystal structure was formed
[6]; albumin 0.1% (w/w)
  particle / crystal formation: micro-sized particles were formed
[6]; albumin 1% (w/w)
  particle / crystal formation: crystal structure was formed
[6]; albumin 10% (w/w)
  particle / crystal formation: crystal structure was formed

## sodium deoxycholate
[2]
  formation of crystalline particles in which AAV was aggregated (microscope): large fibrous particles were observed
[3]; all concentrations: 0.2%, 0.05%, 0.0125%, 0.0003% (w/w), PBS pH 7.4
  particle / crystal formation: crystal structure was formed
